Assay results reported in US7456154B2 (priority 2001, dated 2008).

Tested on: AChE-R
Test: Immunohistochemical staining of AChE-R in rat muscle
Type: in vivo
Settings: healthy and EAMG rats, 24 h after single i.v. injection of 250 μg/Kg
Method: Immunocytochemistry: Muscle sections were deparaffinized with xylene and were re-hydrated in graded ethanol solutions (100%, 90%, 70%) and PBS. Heat-induced antigen retrieval was performed by microwave treatment (850 W for rapid boil following 10 min in reduced intensity) in 500 ml of 0.01M citrate buffer pH 6.0. Slides were cooled to room temperature and rinsed in double distilled water. Non-specific binding was blocked by 4% nominal donkey serum in PBS with 0.3% Triton X-100 and 0.05% Tween 20 (1 hr at room temperature). Biotinylated primary antibody was diluted (1:100 and 1:30 for rabbit anti-AChE-R [Sternfeld et al. (2000) id ibid] and goat anti-nAChR, respectively) in the same buffer and slides were incubated 1 hr at room temperature following overnight incubation at 4° C. Sections were rinsed and incubated with alkaline phosphatase-conjugated secondary antibody, diluted in the same blocking buffer 1 hr at room temperature and then overnight at 4° C. Detection was with the alkaline phosphatase substrate Fast Red (Roche Diagnostics, Mannheim, Germany). Slides were simultaneously transferred to a stop solution (25 mM EDTA, 0.05% Triton X-100, 1 mM levamisole in PBS, pH 7.2), rinsed in PBS and cover-slipped with Immunomount (Shandon). […]

With “5′-CTGCGATATTTTCTTGTACC-3′ (chemistry not given here) [rEN101]” the “AChE-R immunohistochemical staining in muscle” value was “significantly reduced”.
